Experimental data: patent US7135502B1, “Colchinol derivatives as vascular damaging agents” (priority 1999, dated 2006)

Legend:
CaNT tumour vasculature = experiment: Activity against tumour vasculature measured by fluorescent dye (Hoechst 33342), tumour functional vascular volume; assay type: in vivo; settings: fluorescent dye method, CaNT tumour-bearing mice, dye 24 hours after drug treatment; for % Decrease in vascular volume: intraperitoneal, dose not given
Protocol: (b) Activity Against Tumour Vasculature Measured by Fluorescent Dye
Tumour functional vascular volume of CaNT tumour-bearing mice was measured using the fluorescent dye Hoechst 33342 according to the method of Smith et al (Brit. Jnl. Cancer 1988, 57, 247–253). Five animals were used in control and treated group. The fluorescent dye was dissolved in saline at 6.25 mg/ml and injected intravenously at 10 mg/kg 24 hours after intraperitoneal drug treatment. One minute later, animals were killed and tumours excised and frozen; 10 μm sections were cut at 3 different levels and observed under UV illumination using an Olympus microscope equipped with epifluorescence. Blood vessels were identified by their fluorescent outlines and vascular volume was quantified using a point scoring system based on that described by Chalkley, (Jnl. Natl. Cancer Inst., 1943, 4, 47–53). All estimates were based on counting a minimum of 100 fields from sections cut at the 3 different levels.

tubulin = experiment: Tubulin polymerisation assay; assay type: biochemical; settings: method of O. Boye et al Med. Chem. Res., 1991, 1, 142-150
Source text: The ability of the compounds to bind to preparations of mammalian tubulin can be evaluated by a number of methods available in the literature, for example by following temperature initiated tubulin polymerisation by turbidity in the absence and presence of the compound (for example O. Boye et al Med. Chem. Res., 1991, 1, 142–150).

vasculature = settings: at maximum tolerated dose; Lancet, 1994, 344, 1267-1271; cited from earlier work

## COc1cc2c(c(OC)c1OC)-c1ccc(OC(=O)N3CCC(N4CCCCC4)CC3)cc1C(NC(C)=O)CC2 (centres unmarked) [Example 3, N-[3-(4-(1-piperidinyl)piperidinylcarbonyloxy)-9,10,11-trimethoxy-6,7-dihydro-5H-dibenzo[a,c]cyclohepten-5-yl]acetamide]
CaNT tumour vasculature
  % Decrease in vascular volume: 45%

## COc1cc2c(c(OC)c1OC)-c1ccc(N)cc1C(NC(C)=O)CC2 (centres unmarked) [N-[3-amino-9,10,11-trimethoxy-6,7-dihydro-5H-dibenzo[a,c]cyclohepten-5-yl]acetamide]
CaNT tumour vasculature; 50 mg/kg intraperitoneally
  decrease in perfused vascular volume relative to control: 88%
tubulin
  IC50: 58 µM

## CC(=O)O[C@@]12CO[C@@H]1C[C@H](O)[C@@]1(C)C(=O)[C@H](O)C3=C(C)[C@@H](OC(=O)[C@H](O)[C@@H](NC(=O)OC(C)(C)C)c4ccccc4)C[C@@](O)([C@@H](OC(=O)c4ccccc4)[C@H]21)C3(C)C [docetaxel]
vasculature
  vascular-damaging activity when administered at the MTD: no vascular-damaging activity

## COc1cc2c(c(OC)c1OC)-c1ccc(NC(=O)[C@H](C)N)cc1C(NC(C)=O)CC2 (some centres unmarked) [Example 2, N-[3-(alanylamino)-9,10,11-trimethoxy-6,7-dihydro-5H-dibenzo[a,c]cyclohepten-5-yl]acetamide]
CaNT tumour vasculature
  % Decrease in vascular volume: 95%
